Source: ChEMBL document CHEMBL1144510, “Synthesis of beta-ketophosphonate analogs of glutamyl and glutaminyl adenylate, and selective inhibition of the corresponding bacterial aminoacyl-tRNA synthetases” (Bioorg Med Chem, 2007)

Experiments:
[1] = Inhibition of Escherichia coli GluRS
[2] = Ratio of Ki for calf liver GluRS to Ki for Escherichia coli GluRS
[3] = Inhibition of cytoplasmic calf liver GluRS; set-up: species or system Bos taurus
[4] = Inhibition of Escherichia coli GlnRS

Ratio Ki [2] | Ki [3] | Compound | Ki [1] | Ki [4]
145 | 2600 µM | Nc1ncnc2c1ncn2[C@@H]1O[C@H](COP(=O)(O)CC(=O)[C@@H](N)CCC(=O)O)[C@@H](O)[C@H]1O | 18 µM | 2800 µM
 |  | NC(=O)CC[C@H](N)C(=O)CP(=O)(O)OC[C@H]1O[C@@H](n2cnc3c(N)ncnc32)[C@H](O)[C@@H]1O | 2900 µM | 650 µM
25 | 0.07 µM | Nc1ncnc2c1ncn2[C@@H]1OC(COS(=O)(=O)NC(=O)[C@@H](N)CCC(=O)O)[C@@H](O)[C@H]1O (some centres undefined) | 0.0028 µM | 
